Experimental data taken from US11845752B2, “Substituted imidazo[1,5-a]pyrazines for the treatment of hepatitis B” (ALIGOS THERAPEUTICS, INC., priority 2020, dated 2023).
pEC50: −log10 of the molar value. Read-outs that look alike come from different tables or passages of the source.

Test system: HBV
Test: HBV-DNA antiviral assay using HepG2.117 cells (intracellular HBV DNA by qPCR)
Assay type: cell-based, HBV genotype D
Settings: HBV DNA inhibition, 3 days incubation, read-out: EC50
Outline: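 Read-outs: cell-lysate HBV DNA copies by qPCR (interpolated from gBlock standard) and parallel cellular ATP luminescence for CC50, both normalised to 2% DMSO controls and fitted by non-linear regression. HepG2.117 Tet-off genotype D HBV cells, induced by doxycycline removal, exposed 3 days to 4-fold serial dilutions.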

[1] = Hepatitis B virus, HepG2.117, 72 h

SMILES	pEC50 [1]	pEC50
Cc1nnc(-c2ccccc2CNC(=O)c2c3n(c(=O)n2-c2ccc(OC4CC4)cc2)CC(C)N(C(=O)c2ccc(Br)c(C#N)c2)C3)o1 (single isomer, unassigned) [Compound 5a, (6S*)-7-(4-bromo-3-cyano-benzoyl)-2-[4-(cyclopropoxy)phenyl]-6-methyl-N-[[2-(5-methyl-1,3,4-oxadiazol-2-yl)phenyl]methyl]-3-oxo-6,8-dihydro-5H-imidazo[1,5-a]pyrazine-1-carboxamide]	5.30 to 6.30	–
Cc1cnn(-c2ccccc2CNC(=O)c2c3n(c(=O)n2-c2ccc(OC4CC4)cc2)CC(C)N(C(=O)c2ccc(Br)c(Cl)c2)C3)c1 (single isomer, unassigned) [Compound 6a, 7-(4-bromo-3-chloro-benzoyl)-2-[4-(cyclopropoxy)phenyl]-6-methyl-N-[[2-(4-methylpyrazol-1-yl)phenyl]methyl]-3-oxo-6,8-dihydro-5H-imidazo[1,5-a]pyrazine-1-carboxamide]	6.30 to 7.30	–
Cc1cnn(-c2ccccc2CNC(=O)c2c3n(c(=O)n2-c2ccc(OC4CC4)cc2)CC(C)N(C(=O)c2ccc(Br)c(Cl)c2)C3)c1 (single isomer, unassigned) [Compound 6b, 7-(4-bromo-3-chloro-benzoyl)-2-[4-(cyclopropoxy)phenyl]-6-methyl-N-[[2-(4-methylpyrazol-1-yl)phenyl]methyl]-3-oxo-6,8-dihydro-5H-imidazo[1,5-a]pyrazine-1-carboxamide]	–	> 7.30
CC1Cn2c(c(C(=O)NCc3ccccc3-c3cccnn3)n(-c3ccc(OC4CC4)cc3)c2=O)CN1C(=O)c1ccc(Br)c(Cl)c1 (single isomer, unassigned) [Compound 7a, 7-(4-bromo-3-chloro-benzoyl)-2-[4-(cyclopropoxy)phenyl]-6-methyl-3-oxo-N-[(2-pyridazin-3-ylphenyl)methyl]-6,8-dihydro-5H-imidazo[1,5-a]pyrazine-1-carboxamide]	6.30 to 7.30	–
CC1Cn2c(c(C(=O)NCc3ccccc3-c3cccnn3)n(-c3ccc(OC4CC4)cc3)c2=O)CN1C(=O)c1ccc(Br)c(Cl)c1 (single isomer, unassigned) [Compound 7b, 7-(4-bromo-3-chloro-benzoyl)-2-[4-(cyclopropoxy)phenyl]-6-methyl-3-oxo-N-[(2-pyridazin-3-ylphenyl)methyl]-6,8-dihydro-5H-imidazo[1,5-a]pyrazine-1-carboxamide]	–	> 7.30
CC1Cn2c(c(C(=O)NCc3ccccc3-c3cc(N)ncn3)n(-c3ccc(OC4CC4)cc3)c2=O)CN1C(=O)c1ccc(Br)c(Cl)c1 (single isomer, unassigned) [Compound 8a, N-[[2-(6-aminopyrimidin-4-yl)phenyl]methyl]-7-(4-bromo-3-chloro-benzoyl)-2-[4-(cyclopropoxy)phenyl]-6-methyl-3-oxo-6,8-dihydro-5H-imidazo[1,5-a]pyrazine-1-carboxamide]	6.30 to 7.30	–
CC1Cn2c(c(C(=O)NCc3ccccc3-c3cc(N)ncn3)n(-c3ccc(OC4CC4)cc3)c2=O)CN1C(=O)c1ccc(Br)c(Cl)c1 (single isomer, unassigned) [Compound 8b, N-[[2-(6-aminopyrimidin-4-yl)phenyl]methyl]-7-(4-bromo-3-chloro-benzoyl)-2-[4-(cyclopropoxy)phenyl]-6-methyl-3-oxo-6,8-dihydro-5H-imidazo[1,5-a]pyrazine-1-carboxamide]	–	> 7.30
CC1Cn2c(c(C(=O)NCc3ccccc3-c3ccncn3)n(-c3ccc(OC4CC4)cc3)c2=O)CN1C(=O)c1ccc(Br)c(Cl)c1 (single isomer, unassigned) [Compound 9a, 7-(4-bromo-3-chloro-benzoyl)-2-[4-(cyclopropoxy)phenyl]-6-methyl-3-oxo-N-[(2-pyrimidin-4-ylphenyl)methyl]-6,8-dihydro-5H-imidazo[1,5-a]pyrazine-1-carboxamide]	6.30 to 7.30	–
CC1Cn2c(c(C(=O)NCc3ccccc3-c3ccncn3)n(-c3ccc(OC4CC4)cc3)c2=O)CN1C(=O)c1ccc(Br)c(Cl)c1 (single isomer, unassigned) [Compound 9b, 7-(4-bromo-3-chloro-benzoyl)-2-[4-(cyclopropoxy)phenyl]-6-methyl-3-oxo-N-[(2-pyrimidin-4-ylphenyl)methyl]-6,8-dihydro-5H-imidazo[1,5-a]pyrazine-1-carboxamide]	–	> 7.30
CC1Cn2c(c(C(=O)NCc3ccccc3-c3ccc(N)nn3)n(-c3ccc(OC4CC4)cc3)c2=O)CN1C(=O)c1ccc(Br)c(Cl)c1 (single isomer, unassigned) [Compound 10a, N-[[2-(6-aminopyridazin-3-yl)phenyl]methyl]-7-(4-bromo-3-chloro-benzoyl)-2-[4-(cyclopropoxy)phenyl]-6-methyl-3-oxo-6,8-dihydro-5H-imidazo[1,5-a]pyrazine-1-carboxamide]	–	5.30 to 6.30
CC1Cn2c(c(C(=O)NCc3ccccc3-c3ccc(N)nn3)n(-c3ccc(OC4CC4)cc3)c2=O)CN1C(=O)c1ccc(Br)c(Cl)c1 (single isomer, unassigned) [Compound 10b, N-[[2-(6-aminopyridazin-3-yl)phenyl]methyl]-7-(4-bromo-3-chloro-benzoyl)-2-[4-(cyclopropoxy)phenyl]-6-methyl-3-oxo-6,8-dihydro-5H-imidazo[1,5-a]pyrazine-1-carboxamide]	–	6.30 to 7.30
CC1Cn2c(c(C(=O)NCc3ccccc3-c3ccnc(N)n3)n(-c3ccc(OC4CC4)cc3)c2=O)CN1C(=O)c1ccc(Br)c(Cl)c1 (single isomer, unassigned) [Compound 11a, N-[[2-(2-aminopyrimidin-4-yl)phenyl]methyl]-7-(4-bromo-3-chloro-benzoyl)-2-[4-(cyclopropoxy)phenyl]-6-methyl-3-oxo-6,8-dihydro-5H-imidazo[1,5-a]pyrazine-1-carboxamide]	> 7.30	–
CC1Cn2c(c(C(=O)NCc3ccccc3-c3ccnc(N)n3)n(-c3ccc(OC4CC4)cc3)c2=O)CN1C(=O)c1ccc(Br)c(Cl)c1 (single isomer, unassigned) [Compound 11b, N-[[2-(2-aminopyrimidin-4-yl)phenyl]methyl]-7-(4-bromo-3-chloro-benzoyl)-2-[4-(cyclopropoxy)phenyl]-6-methyl-3-oxo-6,8-dihydro-5H-imidazo[1,5-a]pyrazine-1-carboxamide]	–	6.30 to 7.30
Cc1cc(C(=O)N2Cc3c(C(=O)NCc4ccccc4-c4ccncn4)n(-c4ccc(OC5CC5)cc4)c(=O)n3CC2C)ccc1Br (single isomer, unassigned) [Compound 12a, 7-(4-bromo-3-methyl-benzoyl)-2-[4-(cyclopropoxy)phenyl]-6-methyl-3-oxo-N-[(2-pyrimidin-4-ylphenyl)methyl]-6,8-dihydro-5H-imidazo[1,5-a]pyrazine-1-carboxamide]	6.30 to 7.30	–
Cc1cc(C(=O)N2Cc3c(C(=O)NCc4ccccc4-c4ccncn4)n(-c4ccc(OC5CC5)cc4)c(=O)n3CC2C)ccc1Br (single isomer, unassigned) [Compound 12b, 7-(4-bromo-3-methyl-benzoyl)-2-[4-(cyclopropoxy)phenyl]-6-methyl-3-oxo-N-[(2-pyrimidin-4-ylphenyl)methyl]-6,8-dihydro-5H-imidazo[1,5-a]pyrazine-1-carboxamide]	–	> 7.30
CC1Cn2c(c(C(=O)NCc3ccccc3-c3ccncn3)n(-c3ccc(OC4CC4)cc3)c2=O)CN1C(=O)c1ccc(Br)c(C(F)(F)F)c1 (single isomer, unassigned) [Compound 13a, 7-[4-bromo-3-(trifluoromethyl)benzoyl]-2-[4-(cyclopropoxy)phenyl]-6-methyl-3-oxo-N-[(2-pyrimidin-4-ylphenyl)methyl]-6,8-dihydro-5H-imidazo[1,5-a]pyrazine-1-carboxamide]	6.30 to 7.30	–
CC1Cn2c(c(C(=O)NCc3ccccc3-c3ccncn3)n(-c3ccc(OC4CC4)cc3)c2=O)CN1C(=O)c1ccc(Br)c(C(F)(F)F)c1 (single isomer, unassigned) [Compound 13b, 7-[4-bromo-3-(trifluoromethyl)benzoyl]-2-[4-(cyclopropoxy)phenyl]-6-methyl-3-oxo-N-[(2-pyrimidin-4-ylphenyl)methyl]-6,8-dihydro-5H-imidazo[1,5-a]pyrazine-1-carboxamide]	–	> 7.30
CC1Cn2c(c(C(=O)NCc3ccccc3-c3ccncn3)n(-c3ccc(OC4CC4)cc3)c2=O)CN1C(=O)c1ccc(Br)c(C(F)F)c1 (single isomer, unassigned) [Compound 16a, 7-[4-bromo-3-(difluoromethyl)benzoyl]-2-[4-(cyclopropoxy)phenyl]-6-methyl-3-oxo-N-[(2-pyrimidin-4-ylphenyl)methyl]-6,8-dihydro-5H-imidazo[1,5-a]pyrazine-1-carboxamide]	6.30 to 7.30	–
CC1Cn2c(c(C(=O)NCc3ccccc3-c3ccncn3)n(-c3ccc(OC4CC4)cc3)c2=O)CN1C(=O)c1ccc(Br)c(C(F)F)c1 (single isomer, unassigned) [Compound 16b, 7-[4-bromo-3-(difluoromethyl)benzoyl]-2-[4-(cyclopropoxy)phenyl]-6-methyl-3-oxo-N-[(2-pyrimidin-4-ylphenyl)methyl]-6,8-dihydro-5H-imidazo[1,5-a]pyrazine-1-carboxamide]	–	> 7.30
COc1cnn(-c2ccccc2CNC(=O)c2c3n(c(=O)n2-c2ccc(OC4CC4)cc2)CC(C)N(C(=O)c2ccc(Br)c(Cl)c2)C3)c1 (single isomer, unassigned) [Compound 17a, 7-(4-bromo-3-chloro-benzoyl)-2-[4-(cyclopropoxy)phenyl]-N-[[2-(4-methoxypyrazol-1-yl)phenyl]methyl]-6-methyl-3-oxo-6,8-dihydro-5H-imidazo[1,5-a]pyrazine-1-carboxamide]	6.30 to 7.30	–
COc1cnn(-c2ccccc2CNC(=O)c2c3n(c(=O)n2-c2ccc(OC4CC4)cc2)CC(C)N(C(=O)c2ccc(Br)c(Cl)c2)C3)c1 (single isomer, unassigned) [Compound 17b, 7-(4-bromo-3-chloro-benzoyl)-2-[4-(cyclopropoxy)phenyl]-N-[[2-(4-methoxypyrazol-1-yl)phenyl]methyl]-6-methyl-3-oxo-6,8-dihydro-5H-imidazo[1,5-a]pyrazine-1-carboxamide]	–	> 7.30
